Target: T1, Cran1 (Cell cycle-related ATPase and nickase 1) (Saccharolobus islandicus, UniProt F0NG35, E246A)
T1 construct: gene SiRe_0086; full-length, C-terminal His-tag; expressed in Sa. islandicus (ATPase assay) or E. coli BL21(DE3)-RIL; monomer, 55 kDa by gel filtration
Test: malachite green phosphate release assay
Type: biochemical
Conditions: 1 mM ATP, 0.2 uM protein, 5 mM MgCl2, 25 mM Tris-HCl pH 7.4, 100 mM NaCl; 70 C

T1 sequence (F0NG35 entry or part of it E246A): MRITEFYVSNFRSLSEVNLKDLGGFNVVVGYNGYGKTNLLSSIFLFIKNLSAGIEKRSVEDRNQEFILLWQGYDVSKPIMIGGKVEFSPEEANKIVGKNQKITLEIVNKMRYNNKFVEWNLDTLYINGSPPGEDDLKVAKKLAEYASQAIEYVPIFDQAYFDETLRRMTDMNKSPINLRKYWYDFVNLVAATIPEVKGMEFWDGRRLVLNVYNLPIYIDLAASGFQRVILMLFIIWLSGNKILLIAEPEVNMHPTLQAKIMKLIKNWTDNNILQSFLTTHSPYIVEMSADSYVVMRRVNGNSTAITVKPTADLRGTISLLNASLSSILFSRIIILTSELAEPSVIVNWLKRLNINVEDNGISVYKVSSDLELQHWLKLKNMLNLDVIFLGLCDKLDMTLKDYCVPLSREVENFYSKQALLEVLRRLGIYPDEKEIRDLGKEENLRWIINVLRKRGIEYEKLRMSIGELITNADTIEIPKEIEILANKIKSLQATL

With `Nc1ncnc2c1ncn2[C@@H]1O[C@H](COP(=O)(O)OP(=O)(O)OP(=O)(O)O)[C@@H](O)[C@H]1O` [ATP] the “malachite green phosphate release assay” value was “substitution of either of the two residues with alanine had no effect both in vitro”.
